Measurements as given in ChEMBL document CHEMBL5465560, “Selectivity Literature for EUbOPEN Chemogenomic Library” (2024).
Blank lines part the entries; values can stand above or below the compound they belong to.

Columns and labels:
[1] = target: Insulin receptor (Homo sapiens, UniProt P06213); assay: Selectivity interaction (Millipore kinase profiler) EUB0000124b INSR; settings: at 10 µM
[2] = target: T1, Serine/threonine-protein kinase ULK1 (Homo sapiens) (UniProt O75385); assay: Selectivity interaction (LanthaScreen Eu Kinase Binding Assay) EUB0001632a ULK1; settings: at 10 µM
T1 sequence (whole entry): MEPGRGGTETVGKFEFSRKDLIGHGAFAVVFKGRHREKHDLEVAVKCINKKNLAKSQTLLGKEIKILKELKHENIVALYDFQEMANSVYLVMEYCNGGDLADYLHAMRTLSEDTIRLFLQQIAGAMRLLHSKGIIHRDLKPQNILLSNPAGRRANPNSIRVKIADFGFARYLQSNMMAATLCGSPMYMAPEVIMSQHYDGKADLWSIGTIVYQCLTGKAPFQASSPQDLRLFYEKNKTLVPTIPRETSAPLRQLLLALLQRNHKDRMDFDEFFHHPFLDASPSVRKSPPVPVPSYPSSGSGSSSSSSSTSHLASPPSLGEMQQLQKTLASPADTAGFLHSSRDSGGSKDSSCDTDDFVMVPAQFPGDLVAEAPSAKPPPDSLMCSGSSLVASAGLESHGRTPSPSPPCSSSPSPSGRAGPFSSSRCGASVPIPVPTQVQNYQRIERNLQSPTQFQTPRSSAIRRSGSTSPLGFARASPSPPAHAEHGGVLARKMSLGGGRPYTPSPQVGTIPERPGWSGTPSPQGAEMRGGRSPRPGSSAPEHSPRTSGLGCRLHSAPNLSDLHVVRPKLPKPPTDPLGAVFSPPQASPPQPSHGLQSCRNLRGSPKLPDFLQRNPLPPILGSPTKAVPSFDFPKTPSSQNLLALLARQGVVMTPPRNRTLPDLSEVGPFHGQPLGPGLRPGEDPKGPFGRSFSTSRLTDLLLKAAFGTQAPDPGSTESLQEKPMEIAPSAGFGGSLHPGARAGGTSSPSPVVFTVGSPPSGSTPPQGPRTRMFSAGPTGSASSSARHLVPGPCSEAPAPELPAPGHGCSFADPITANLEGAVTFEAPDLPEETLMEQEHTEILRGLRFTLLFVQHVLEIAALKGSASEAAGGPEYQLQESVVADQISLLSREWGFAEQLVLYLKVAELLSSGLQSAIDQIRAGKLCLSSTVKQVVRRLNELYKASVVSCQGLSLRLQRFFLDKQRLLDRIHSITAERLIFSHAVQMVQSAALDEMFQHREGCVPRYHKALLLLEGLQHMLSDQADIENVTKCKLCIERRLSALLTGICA

[3] = target: Serine/threonine-protein kinase 32A (Homo sapiens) (UniProt Q8WU08); assay: Selectivity interaction (KinomeScan (DiscoverX)) EUB0000229b STK32A; settings: at 10 µM
[4] = target: Protein kinase C eta type (Homo sapiens) (UniProt P24723); assay: Selectivity interaction (KinomeScan (DiscoverX)) EUB0000618a PRKCH; settings: at 10 µM
[5] = target: T2, Serine/threonine-protein kinase ULK2 (Homo sapiens) (UniProt Q8IYT8); assay: Selectivity interaction (KinomeScan (DiscoverX)) EUB0000618a ULK2; settings: at 10 µM
T2 sequence (whole entry): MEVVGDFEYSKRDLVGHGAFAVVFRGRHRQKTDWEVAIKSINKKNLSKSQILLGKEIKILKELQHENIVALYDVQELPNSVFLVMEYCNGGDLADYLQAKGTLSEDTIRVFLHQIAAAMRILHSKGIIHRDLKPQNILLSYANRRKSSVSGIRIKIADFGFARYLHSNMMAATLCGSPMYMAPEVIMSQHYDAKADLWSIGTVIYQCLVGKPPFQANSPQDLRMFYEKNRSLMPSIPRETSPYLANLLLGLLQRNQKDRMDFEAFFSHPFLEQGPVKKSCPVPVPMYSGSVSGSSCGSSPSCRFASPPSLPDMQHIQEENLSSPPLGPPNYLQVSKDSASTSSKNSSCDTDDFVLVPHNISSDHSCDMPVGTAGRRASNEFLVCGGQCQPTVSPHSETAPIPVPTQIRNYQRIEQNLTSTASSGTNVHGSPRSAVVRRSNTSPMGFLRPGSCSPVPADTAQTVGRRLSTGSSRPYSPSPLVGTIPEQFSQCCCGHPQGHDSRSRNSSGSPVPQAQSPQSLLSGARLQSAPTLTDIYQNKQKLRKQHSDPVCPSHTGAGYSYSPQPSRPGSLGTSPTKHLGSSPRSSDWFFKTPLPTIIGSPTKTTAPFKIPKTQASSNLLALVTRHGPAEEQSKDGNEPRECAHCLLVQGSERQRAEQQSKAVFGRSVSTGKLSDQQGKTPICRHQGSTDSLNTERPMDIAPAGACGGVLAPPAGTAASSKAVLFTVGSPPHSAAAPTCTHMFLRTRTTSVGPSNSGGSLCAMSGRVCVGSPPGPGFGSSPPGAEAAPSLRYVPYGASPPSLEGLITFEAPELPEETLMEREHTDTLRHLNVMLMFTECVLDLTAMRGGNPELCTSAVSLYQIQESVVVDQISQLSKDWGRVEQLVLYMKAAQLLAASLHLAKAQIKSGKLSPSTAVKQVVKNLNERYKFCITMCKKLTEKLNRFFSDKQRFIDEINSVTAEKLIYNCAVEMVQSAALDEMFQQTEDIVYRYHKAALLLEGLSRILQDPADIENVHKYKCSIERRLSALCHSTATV

[6] = target: Serine/threonine-protein kinase PAK 6 (Homo sapiens) (UniProt Q9NQU5); assay: Selectivity interaction (SelectScreen profiling (Invitrogen)) EUB0000607a PAK6; settings: at 2 µM
[7] = target: Leucine-rich repeat serine/threonine-protein kinase 2 (Homo sapiens, UniProt Q5S007); assay: Selectivity interaction (SelectScreen Kinase Profiling (Thermo Fisher Scientific)) EUB0001558a LRRK2; settings: at 1 µM
Sequence of Leucine-rich repeat serine/threonine-protein kinase 2 (Q5S007 whole entry): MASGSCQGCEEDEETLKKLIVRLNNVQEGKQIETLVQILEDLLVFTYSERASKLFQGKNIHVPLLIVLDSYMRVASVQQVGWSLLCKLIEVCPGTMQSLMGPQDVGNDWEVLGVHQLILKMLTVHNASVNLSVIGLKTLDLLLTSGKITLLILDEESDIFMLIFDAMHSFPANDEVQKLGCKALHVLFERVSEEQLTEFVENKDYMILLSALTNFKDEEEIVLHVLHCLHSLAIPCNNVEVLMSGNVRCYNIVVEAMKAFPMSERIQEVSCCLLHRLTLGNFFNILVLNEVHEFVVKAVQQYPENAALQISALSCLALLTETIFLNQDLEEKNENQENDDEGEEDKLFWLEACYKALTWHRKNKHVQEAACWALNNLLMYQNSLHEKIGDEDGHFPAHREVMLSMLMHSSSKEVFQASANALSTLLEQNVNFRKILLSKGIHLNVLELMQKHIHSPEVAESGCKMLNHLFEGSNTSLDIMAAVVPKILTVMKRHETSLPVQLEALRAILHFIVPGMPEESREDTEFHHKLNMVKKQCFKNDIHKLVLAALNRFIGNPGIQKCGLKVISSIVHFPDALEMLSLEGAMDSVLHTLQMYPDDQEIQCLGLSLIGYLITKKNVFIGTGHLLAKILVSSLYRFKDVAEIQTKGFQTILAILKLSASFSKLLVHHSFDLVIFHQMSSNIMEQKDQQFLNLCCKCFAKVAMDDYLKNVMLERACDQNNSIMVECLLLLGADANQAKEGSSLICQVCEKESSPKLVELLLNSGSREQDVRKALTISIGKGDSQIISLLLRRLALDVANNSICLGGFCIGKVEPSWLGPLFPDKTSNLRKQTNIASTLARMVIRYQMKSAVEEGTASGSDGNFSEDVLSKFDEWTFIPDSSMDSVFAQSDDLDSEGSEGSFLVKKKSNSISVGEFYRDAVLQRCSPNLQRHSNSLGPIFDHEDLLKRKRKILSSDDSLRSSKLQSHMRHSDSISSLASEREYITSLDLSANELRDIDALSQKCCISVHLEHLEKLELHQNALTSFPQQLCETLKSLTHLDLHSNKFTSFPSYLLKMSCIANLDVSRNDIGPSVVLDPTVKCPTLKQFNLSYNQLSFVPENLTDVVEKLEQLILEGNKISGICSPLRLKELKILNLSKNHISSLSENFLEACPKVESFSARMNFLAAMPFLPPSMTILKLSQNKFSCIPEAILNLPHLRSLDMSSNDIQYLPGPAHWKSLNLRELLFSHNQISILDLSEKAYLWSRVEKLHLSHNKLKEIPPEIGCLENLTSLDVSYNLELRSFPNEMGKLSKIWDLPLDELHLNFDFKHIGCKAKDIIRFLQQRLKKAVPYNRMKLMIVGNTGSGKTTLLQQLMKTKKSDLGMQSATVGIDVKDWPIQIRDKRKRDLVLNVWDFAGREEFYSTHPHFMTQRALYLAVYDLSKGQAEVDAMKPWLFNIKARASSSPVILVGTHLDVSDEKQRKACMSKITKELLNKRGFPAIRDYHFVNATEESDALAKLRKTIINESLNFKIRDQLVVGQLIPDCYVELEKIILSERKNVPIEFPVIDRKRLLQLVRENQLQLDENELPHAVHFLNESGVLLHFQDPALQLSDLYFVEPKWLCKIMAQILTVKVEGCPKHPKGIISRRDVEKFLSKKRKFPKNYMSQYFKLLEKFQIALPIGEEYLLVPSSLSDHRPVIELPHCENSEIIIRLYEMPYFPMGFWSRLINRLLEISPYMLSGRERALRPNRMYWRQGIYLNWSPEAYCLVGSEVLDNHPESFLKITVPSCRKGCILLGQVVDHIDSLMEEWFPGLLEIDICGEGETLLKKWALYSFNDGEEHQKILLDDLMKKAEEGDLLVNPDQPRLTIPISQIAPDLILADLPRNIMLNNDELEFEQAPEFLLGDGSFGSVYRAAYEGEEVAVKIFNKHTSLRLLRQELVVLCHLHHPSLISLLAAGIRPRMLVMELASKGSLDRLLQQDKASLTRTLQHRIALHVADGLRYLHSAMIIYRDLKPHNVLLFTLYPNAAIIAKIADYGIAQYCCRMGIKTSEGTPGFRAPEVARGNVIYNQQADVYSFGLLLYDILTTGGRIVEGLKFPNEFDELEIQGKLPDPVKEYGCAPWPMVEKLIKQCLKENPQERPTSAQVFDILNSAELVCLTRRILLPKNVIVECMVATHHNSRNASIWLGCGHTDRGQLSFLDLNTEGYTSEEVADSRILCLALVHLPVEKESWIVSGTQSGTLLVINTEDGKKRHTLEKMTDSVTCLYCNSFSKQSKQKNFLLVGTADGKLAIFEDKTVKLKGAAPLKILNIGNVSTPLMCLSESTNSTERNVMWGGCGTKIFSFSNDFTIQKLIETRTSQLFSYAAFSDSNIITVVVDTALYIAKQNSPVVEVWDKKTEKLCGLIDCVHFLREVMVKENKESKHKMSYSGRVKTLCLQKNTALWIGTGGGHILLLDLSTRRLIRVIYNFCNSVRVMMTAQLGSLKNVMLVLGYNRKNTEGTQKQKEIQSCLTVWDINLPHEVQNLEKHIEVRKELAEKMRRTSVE

Sequence of Protein kinase C eta type (Homo sapiens) (P24723 whole entry): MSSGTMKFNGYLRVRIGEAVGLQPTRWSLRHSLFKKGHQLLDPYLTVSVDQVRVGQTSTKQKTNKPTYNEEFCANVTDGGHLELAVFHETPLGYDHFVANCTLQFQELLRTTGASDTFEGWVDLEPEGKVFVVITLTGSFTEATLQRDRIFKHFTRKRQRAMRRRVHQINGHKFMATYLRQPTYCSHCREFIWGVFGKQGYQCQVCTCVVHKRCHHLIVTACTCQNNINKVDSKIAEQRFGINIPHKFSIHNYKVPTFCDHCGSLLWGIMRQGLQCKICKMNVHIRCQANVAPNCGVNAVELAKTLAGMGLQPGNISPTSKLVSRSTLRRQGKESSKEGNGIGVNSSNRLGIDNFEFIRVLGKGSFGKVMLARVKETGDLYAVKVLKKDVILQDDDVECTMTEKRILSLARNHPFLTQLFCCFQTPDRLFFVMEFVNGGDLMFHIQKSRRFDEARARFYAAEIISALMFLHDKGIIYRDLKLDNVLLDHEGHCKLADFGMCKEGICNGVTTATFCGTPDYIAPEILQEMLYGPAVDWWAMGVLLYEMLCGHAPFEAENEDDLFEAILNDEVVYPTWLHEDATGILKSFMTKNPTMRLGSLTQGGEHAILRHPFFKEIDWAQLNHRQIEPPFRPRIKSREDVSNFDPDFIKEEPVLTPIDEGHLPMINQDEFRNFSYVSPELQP
Sequence of Insulin receptor (P06213 28-758 limits assumed): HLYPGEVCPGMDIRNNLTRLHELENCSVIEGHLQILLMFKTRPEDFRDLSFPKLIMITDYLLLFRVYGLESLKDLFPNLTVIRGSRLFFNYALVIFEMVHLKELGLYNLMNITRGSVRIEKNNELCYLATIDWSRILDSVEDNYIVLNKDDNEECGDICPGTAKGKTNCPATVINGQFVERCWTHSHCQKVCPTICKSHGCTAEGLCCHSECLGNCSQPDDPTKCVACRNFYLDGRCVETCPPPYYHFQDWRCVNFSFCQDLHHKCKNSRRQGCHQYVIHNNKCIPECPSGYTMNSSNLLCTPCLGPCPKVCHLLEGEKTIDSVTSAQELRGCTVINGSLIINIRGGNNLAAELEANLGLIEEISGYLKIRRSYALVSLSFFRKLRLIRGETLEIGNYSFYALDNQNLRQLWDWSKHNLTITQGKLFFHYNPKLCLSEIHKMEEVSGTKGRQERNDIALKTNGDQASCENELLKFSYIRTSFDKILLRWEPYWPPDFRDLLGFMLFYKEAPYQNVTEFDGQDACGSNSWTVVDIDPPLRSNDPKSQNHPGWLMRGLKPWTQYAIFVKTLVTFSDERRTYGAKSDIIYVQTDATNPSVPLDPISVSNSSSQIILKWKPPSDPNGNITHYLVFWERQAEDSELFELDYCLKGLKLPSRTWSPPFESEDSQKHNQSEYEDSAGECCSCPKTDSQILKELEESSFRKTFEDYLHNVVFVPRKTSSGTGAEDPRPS
Sequence of Insulin receptor (P06213 763-1382 limits assumed): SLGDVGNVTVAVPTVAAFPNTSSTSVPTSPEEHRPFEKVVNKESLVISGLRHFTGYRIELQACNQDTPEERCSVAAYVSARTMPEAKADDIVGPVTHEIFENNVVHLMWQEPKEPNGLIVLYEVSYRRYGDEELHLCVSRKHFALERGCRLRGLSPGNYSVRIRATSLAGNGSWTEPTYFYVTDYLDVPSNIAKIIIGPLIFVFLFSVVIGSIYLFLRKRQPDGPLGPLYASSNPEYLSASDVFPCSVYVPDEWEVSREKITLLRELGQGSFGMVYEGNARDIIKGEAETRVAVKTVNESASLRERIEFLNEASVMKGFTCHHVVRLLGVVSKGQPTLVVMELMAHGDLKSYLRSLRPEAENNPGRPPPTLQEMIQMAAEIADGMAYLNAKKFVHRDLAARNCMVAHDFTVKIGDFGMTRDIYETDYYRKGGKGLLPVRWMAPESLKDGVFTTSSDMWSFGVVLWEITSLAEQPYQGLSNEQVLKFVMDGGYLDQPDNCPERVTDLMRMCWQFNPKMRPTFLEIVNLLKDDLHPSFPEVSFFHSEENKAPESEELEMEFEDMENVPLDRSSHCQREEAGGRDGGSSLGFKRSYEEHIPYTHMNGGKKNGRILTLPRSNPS
Sequence of Serine/threonine-protein kinase 32A (Homo sapiens) (Q8WU08 whole entry): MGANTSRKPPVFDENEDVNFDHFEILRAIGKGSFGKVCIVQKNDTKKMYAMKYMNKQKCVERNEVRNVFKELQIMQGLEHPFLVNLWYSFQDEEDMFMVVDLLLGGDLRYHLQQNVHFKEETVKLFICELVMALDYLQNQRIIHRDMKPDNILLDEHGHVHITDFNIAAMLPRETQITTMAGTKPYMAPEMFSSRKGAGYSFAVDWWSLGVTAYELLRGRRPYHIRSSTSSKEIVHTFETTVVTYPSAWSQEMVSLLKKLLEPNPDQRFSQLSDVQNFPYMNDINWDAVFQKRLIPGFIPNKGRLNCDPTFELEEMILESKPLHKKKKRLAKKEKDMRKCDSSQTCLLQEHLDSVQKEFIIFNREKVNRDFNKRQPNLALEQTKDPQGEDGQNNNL

% of control [1]: 129%
Structure (SMILES): CC(=O)Nc1cccc(-n2c(=O)n(C3CC3)c(=O)c3c(Nc4ccc(I)cc4F)n(C)c(=O)c(C)c32)c1

% of inhibition [2]: -7.27%
Structure (SMILES): Cn1cc(-n2cnc3c(NCc4nc5cc(Cl)c(Cl)cc5[nH]4)nc(N4CCOCC4)nc32)cn1

Structure (SMILES): COc1cc(N(C)c2ccnc3ccc(C(F)(F)F)cc23)cc(OC)c1OC
% binding [3]: 82%

Structure (SMILES): O[C@H]1CC[C@H](Nc2ncc3nc(Nc4c(F)cc(F)cc4F)n([C@H]4CCOC4)c3n2)CC1
% of control [4]: 96%
% of control [5]: 89%

Structure (SMILES): CNC(=O)Nc1ccc(-c2nc(N3CC4CCC(C3)O4)c3cnn(C4CCC5(CC4)OCCO5)c3n2)cc1
% of inhibition [6]: 9%

Structure (SMILES): CC(C)(O)[C@H](F)CN1Cc2cc(NC(=O)c3cnn4cccnc34)c(N3CCOCC3)cc2C1=O
% of inhibition [7]: 91.4%
